Measured values from patent publication US8304422B2, “Compositions and methods for inhibition of the JAK pathway” (Rigel Pharmaceuticals, Inc., priority 2007, dated 2012).

system: BaF3 V617F cells; UKE-1; assay: Proliferation Assay (Cell Titer-Glo; Example 7); assay type: cell-based; conditions: proliferation 72 hours, inhibit JAK2 activity, cell line (BaF3 V617F or UKE-1) not stated
Procedure: BaF3 V617F cells are maintained and plated in RPMI with 10% FBS. Plating density for these cells is 1×10^5 cells/mL.
UKE-1 are maintained and plated in Iscove's DMEM containing 10% FBS, 10% equine serum, 1% penicillin/streptomycin and 1 uM hydrocortisone. Plating density for these cells is 0.4×10^6 cells/mL
The cells were resuspended in a corresponding medium at a required cell density (see above). 100μ of cell suspension was added to each well of a flat bottom 96 well white plate. The compound was serially diluted in DMSO from 5 mM in 3-fold dilutions, and then diluted 1:250 in the RPMI 1640 medium containing 5% FBS and pen/strep. 100 μL of resulting 2× compound solution was added per well in duplicate and the cells were allowed to proliferate for 72 hours at 37° C.
Proliferation was measured using Cell Titer-Glo. The substrate was thawed and allowed to come to room temperature. After removal of top 100 μL of medium from each well, 100 μL of the premixed Cell Titer-Glo reagent was added to each well. The plates were mixed on an orbital shaker for three minutes to induce lysis and incubated at ambient temperature for an additional five minutes to allow the signal to equilibrate. The Luminescence was read on the Wallac Plate Reader.
The results of the ability of the compounds of the invention to inhibit JAK2 activity, when tested in the above assay, are shown in the following Table XI wherein the level of activity (i.e., the IC50) for each compound is indicated in Table XI. The compound numbers in Table XI refers to the compounds disclosed herein as being prepared by the methods disclosed herein: […]

Compound | IC50 [nM]
Cc1cc(CNS(=O)(=O)NC2CC2)ccc1Nc1nc(Nc2ccc(N3CCN(C)CC3)nc2)ncc1Cl [II-182, 5-Chloro-N4-[2-methyl-4-((N-cyclopropylamino)sulfonylamino)methylphenyl]-N2-[6-(4-methyl-1-piperazinyl)-3-pyridinyl]-2,4-pyrimidinediamine] | 711
CCNS(=O)(=O)NCc1cccc(Nc2nc(Nc3ccc(N4CCN(C)CC4)cc3)ncc2C)c1 [II-135, N4-[(3-(Ethylamino)sulfonylamino)methylphenyl]-5-methyl-N2-[4-(4-methyl-1-piperazinyl)phenyl]-2,4-pyrimidinediamine] | 267
CCOc1c(C)cc(Nc2ncc(Cl)c(Nc3ccc(CNS(=O)(=O)C4CC4)cc3)n2)cc1C [II-211, 5-Chloro-N4-[4-(N-cyclopropylsulfonylamino)methylphenyl]-N2-[3,5-dimethyl-4-ethoxyphenyl]-2,4-pyrimidinediamine] | 39.4
CN1CCN(c2ccc(Nc3ncc(Cl)c(Nc4ccc(CNS(=O)(=O)NC5CC5)cc4)n3)cc2)CC1 [II-167, 5-Chloro-N4-[4-((N-cyclopropylamino)sulfonylamino)methylphenyl]-N2-[4-(4-methyl-1-piperazinyl)phenyl]-2,4-pyrimidinediamine] | 205
5-Chloro-N4-[4-[N-(Cyclopropylsulfonyl)-N′-((3-ethoxycarbonyl)propion-1-yl)amino]methylphenyl]-N2-(3,5-dimethyl-4-methoxyphenyl)-2,4-pyrimidinediamine [II-140] | 251
CCN1CCN(c2ccc(Nc3ncc(C)c(Nc4ccc(CNS(=O)(=O)N(C)C)cc4)n3)cc2)CC1 [II-107, N4-[(4-(Dimethylamino)sulfonylamino)methylphenyl]-5-methyl-N2-[4-(4-ethyl-1-piperazinyl)phenyl]-2,4-pyrimidinediamine] | 316
CCNS(=O)(=O)NCc1ccc(Nc2nc(Nc3cc(Cl)c(OC)c(Cl)c3)ncc2C)cc1 [II-119, N2-[3,5-Dichloro-4-methoxyphenyl]-N4-[(4-(ethylamino)sulfonylamino)methylphenyl]-5-methyl-2,4-pyrimidinediamine] | 1360
CCNS(=O)(=O)NCc1ccc(Nc2nc(Nc3cc(Cl)c(OC)c(OC)c3)ncc2C)cc1 [II-121, N2-(3-Chloro-4,5-dimethoxyphenyl)-N4-[(4-(ethylamino)sulfonylamino)methylphenyl]-5-methyl-2,4-pyrimidinediamine] | 363
O=S(=O)(NCc1ccc(Nc2nc(Nc3ccc(N4CCN(C5CC6CCC5C6)CC4)c(F)c3)ncc2Cl)cc1)C1CC1 (centres unmarked) [II-79, N-(4-(2-(4-(4-(bicyclo[2.2.1]heptan-2-yl)piperazin-1-yl)-3-fluorophenylamino)-5-chloropyrimidin-4-ylamino)benzyl)cyclopropanesulfonamide] | 3160
COc1cc(Nc2ncc(C)c(Nc3ccc(CNS(=O)(=O)NC4CC4)cc3)n2)cc(C)c1OC [II-166, N4-[4-((N-Cyclopropylamino)sulfonylamino)methylphenyl]-N2-(3,4-dimethoxy-5-methylphenyl)-5-methyl-2,4-pyrimidinediamine] | 247
5-Chloro-N4-[3,4-dihydro-1,1-dioxide-2H-1,2-benzothiazin-7-yl]-N2-[5-methyl-4-(N-methylpiperizin-4-yl)pyridine-3-yl]-2,4-pyrimidinediamine [VII-4] | 558
COc1cc(Nc2ncc(Cl)c(Nc3ccc(CNS(=O)(=O)NC4CC4)cc3C)n2)cc(C)c1OC [II-179, 5-Chloro-N2-(3,4-dimethoxy-5-methylphenyl)-N4-[2-methyl-4-((N-cyclopropylamino)sulfonylamino)methylphenyl]-2,4-pyrimidinediamine] | 215
CCS(=O)(=O)N1CCc2cc(Nc3nc(Nc4cc(C)c(OC)c(C)c4)ncc3F)ccc2C1 [VIII-10, N4-[(N-ethylsulfonyl)-1,2,3,4-tetrahydroisoquinolin-6-yl]-N2-(3,5-dimethyl-4-methoxy)phenyl-5-fluoro-2,4-pyrimidinediamine] | 716
5-Chloro-N4-[4-(N-cyclopropyl-N-acetylsulfonylamino)methylphenyl]-N2-[3,4-dimethyl-5-methoxyphenyl]-2,4-pyrimidinediamine [II-217] | 233
CCS(=O)(=O)N1CCc2c(cccc2Nc2nc(Nc3ccc(N4CCN(C)CC4)nc3)ncc2Cl)C1 [VI-3, 5-Chloro-N2-[6-(4-methyl-1-piperazinyl)-3-pyridinyl]-N4-[1,2,3,4-tetrahydro-2-(ethylsulfonyl)-5-isoquinolinyl]-2,4-pyrimidinediamine] | 1270
5-Chloro-N4-[4-(N-cyclopropylsulfonylamino)methylphenyl]-N2-[4-(N-methylpiperizin-4-yl)phenyl]-2,4-pyrimidinediamine [II-188] | 224

Compound | IC50 [nM]
Cc1cc(Nc2ncc(C(F)(F)F)c(Nc3ccc(CNS(=O)(=O)C4CC4)cc3)n2)ccc1N1CCN(C)CC1 [II-128, N4-[4-(N-Cyclopropylsulfonylamino)methylphenyl]-N2-[3-methyl-4-(4-methyl-1-piperazinyl)phenyl]-5-trifluoromethyl-2,4-pyrimidinediamine] | 755
CCNS(=O)(=O)NCc1cccc(Nc2nc(Nc3cc(C)c(OC)c(C)c3)ncc2C)c1 [II-133, N2-(3,5-Dimethyl-4-methoxyphenyl)-N4-[(3-(ethylamino)sulfonylamino)methylphenyl]-5-methyl-2,4-pyrimidinediamine] | 209
CN1CCN(c2ccc(Nc3ncc(Cl)c(Nc4ccc(CNS(=O)(=O)NC5CC5)cc4)n3)cn2)CC1 [II-169, 5-Chloro-N4-[4-((N-cyclopropylamino)sulfonylamino)methylphenyl]-N2-[6-(4-methyl-1-piperazinyl)-3-pyridinyl]-2,4-pyrimidinediamine] | 348
CCN1CCN(c2ccc(Nc3ncc(Cl)c(Nc4ccc(CCNS(=O)(=O)C5CC5)cc4)n3)c(C(F)(F)F)c2)CC1 [II-57, 5-Chloro-N4[4-(N-cyclopropylsulfonylamino)ethylphenyl]-N2-[4-(4-ethylpiperazino)-2-trifluoromethylphenyl]-2,4-pyrimidinediamine] | 1700
N4-[4-(N-cyclopropylsulfonylamino)ethylphenyl)]-5-methyl-N2-[4-(6-methoxy-2-methyl)methoxyphenyl]-2,4-pyrimidinediamine [II-66] | 467
CCNS(=O)(=O)NCc1ccc(Nc2nc(Nc3cc(C)c(OC)c(OC)c3)ncc2C)cc1 [II-117, N2-(3,4-Dimethoxy-5-methylphenyl)-N4-[(4-(ethylamino)sulfonylamino)methylphenyl]-5-methyl-2,4-pyrimidinediamine] | 208
5-Chloro-N2-(3,5-dimethyl-5-methoxyphenyl)-N4-[(4-(dimethylamino)sulfonylamino)methylphenyl]-2,4-pyrimidinediamine [II-90] | 83.6
Cc1cnc(Nc2ccc(C3CCN(C)CC3)cc2)nc1Nc1ccc2c(c1)[C@H](NS(C)(=O)=O)CC2 [V-11, (1R)-5-Methyl-N2-[4-(1-methyl-4-piperidinyl)pheny]-N4-[1-(methylsulfonyl)aminoindan-6-yl]-2,4-pyrimidinediamine] | 2160
CCNS(=O)(=O)NCc1ccc(Nc2nc(Nc3cc(C)c(OC)c(C)c3)ncc2Cl)cc1 [II-108, 5-chloro-N2-(3,5-Dimethyl-4-methoxyphenyl)-N4-[(4-(ethylamino)sulfonylamino)methylphenyl]-2,4-pyrimidinediamine] | 85
CN1CCN(c2ccncc2Nc2ncc(Cl)c(Nc3ccc4c(c3)S(=O)(=O)NCC4)n2)CC1 [VII-3, 5-Chloro-N4-[3,4-dihydro-1,1-dioxide-2H-1,2-benzothiazin-7-yl]-N2-[4-(N-methylpiperizin-4-yl)pyridine-3-yl]-2,4-pyrimidinediamine] | 1170
CCNS(=O)(=O)NCc1cccc(Nc2nc(Nc3cc(C)c(OC)c(C)c3)ncc2F)c1 [II-137, N2-(3,5-Dimethyl-4-methoxyphenyl)-N4-[(3-(ethylamino)sulfonylamino)methylphenyl]-5-fluoro-2,4-pyrimidinediamine] | 541
COc1cc(Nc2ncc(C)c(Nc3ccc4c(c3)C(NS(=O)(=O)C3CC3)CC4)n2)cc(OC)c1OC (racemic) [V-3] | 1640
5-Chloro-N4-[3,4-dihydro-1,1-dioxide-2H-1,2-benzothiazin-7-yl]-N2-[4-(N-methylpiperizin-4-yl)phenyl]-2,4-pyrimidinediamine [VII-2] | 371
CCNS(=O)(=O)NCc1cccc(Nc2nc(Nc3ccc(N4CCN(C)CC4)c(C)c3)ncc2Cl)c1 [II-132, 5-Chloro-N4-[(3-(ethylamino)sulfonylamino)methylphenyl]-N2-[3-methyl-4-(4-methyl-1-piperazinyl)phenyl]-2,4-pyrimidinediamine] | 1630
5-Chloro-N4-[3-(N-tert-butylsulfonyl)phenyl]-N2-[3,4-trimethyl-4-methoxyphenyl]-2,4-pyrimidinediamine [I-16] | 17700
CCNS(=O)(=O)NCc1ccc(Nc2nc(Nc3cc(Cl)c(OC)c(OC)c3)ncc2Cl)cc1 [II-113, 5-Chloro-N2-(3-chloro-4,5-dimethoxyphenyl)-N4-[(4-(ethylamino)sulfonylamino)methylphenyl]-2,4-pyrimidinediamine] | 286
